Experimental data taken from ChEMBL document CHEMBL1145312, “Structure-activity relationships of triazolopyridine oxazole p38 inhibitors: identification of candidates for clinical development” (Bioorg Med Chem Lett, 2006).
In brackets after ≈: the same amount, converted by molar mass.

How the values were obtained:
[1] = molecular target: MAP kinase-activated protein kinase 2 (Homo sapiens, UniProt P49137); experiment: Inhibition of MAPKAP-K2
[2] = molecular target: Ribosomal protein S6 kinase alpha-1 (Homo sapiens, UniProt Q15418); experiment: Inhibition of MAPKAP-K1a
[3] = molecular target: RAC-alpha serine/threonine-protein kinase (Homo sapiens, UniProt P31749); experiment: Inhibition of PKBalpha
[4] = molecular target: Glycogen synthase kinase-3 beta (Homo sapiens, UniProt P49841); experiment: Inhibition of GSK3-beta
[5] = species on record: Homo sapiens; experiment: Inhibition of LPS-induced TNFalpha production in human whole blood; assay type: functional, organism-based
[6] = molecular target: Casein kinase II (Homo sapiens, UniProt P19784+P67870+P68400); experiment: Inhibition of CK2; assay type: protein-complex assay
[7] = Solubility in PBS buffer at ph 6.5; assay type: physicochemical
[8] = molecular target: T1, Mitogen-activated protein kinase 12 (Homo sapiens, UniProt P53778); experiment: Inhibition of p38-gamma
T1 sequence (P53778 whole entry): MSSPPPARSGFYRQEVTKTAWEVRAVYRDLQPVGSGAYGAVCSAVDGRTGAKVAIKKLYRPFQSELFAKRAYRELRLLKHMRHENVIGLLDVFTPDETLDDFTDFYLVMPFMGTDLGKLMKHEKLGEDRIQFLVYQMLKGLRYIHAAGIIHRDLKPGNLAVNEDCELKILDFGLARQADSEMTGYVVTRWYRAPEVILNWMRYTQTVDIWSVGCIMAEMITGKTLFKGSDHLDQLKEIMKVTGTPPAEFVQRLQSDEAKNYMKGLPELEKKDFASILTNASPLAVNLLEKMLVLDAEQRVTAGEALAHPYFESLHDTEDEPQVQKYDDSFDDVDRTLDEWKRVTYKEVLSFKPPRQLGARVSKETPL

[9] = molecular target: Mitogen-activated protein kinase 1 (Homo sapiens, UniProt P28482); experiment: Inhibition of ERK2
[10] = molecular target: Mitogen-activated protein kinase 14 (Homo sapiens, UniProt Q16539); experiment: Inhibition of p38alpha
[11] = Inhibition of phosphorylase kinase
[12] = molecular target: T2, Serine/threonine-protein kinase Chk1 (Homo sapiens, UniProt O14757); experiment: Inhibition of CHK1
T2 sequence (O14757 whole entry): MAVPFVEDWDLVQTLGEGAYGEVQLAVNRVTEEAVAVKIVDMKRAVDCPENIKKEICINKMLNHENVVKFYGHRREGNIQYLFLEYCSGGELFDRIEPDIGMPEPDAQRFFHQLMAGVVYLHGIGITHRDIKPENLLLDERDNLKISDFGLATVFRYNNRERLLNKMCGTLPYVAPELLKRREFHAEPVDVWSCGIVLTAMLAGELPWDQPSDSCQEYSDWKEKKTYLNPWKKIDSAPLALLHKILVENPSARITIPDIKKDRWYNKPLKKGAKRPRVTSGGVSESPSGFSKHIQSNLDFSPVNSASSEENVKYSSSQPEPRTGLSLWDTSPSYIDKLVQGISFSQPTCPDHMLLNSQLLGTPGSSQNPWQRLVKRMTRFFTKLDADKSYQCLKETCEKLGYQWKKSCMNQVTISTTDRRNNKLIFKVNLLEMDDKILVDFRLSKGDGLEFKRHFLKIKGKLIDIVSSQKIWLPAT

[13] = molecular target: Dual specificity tyrosine-phosphorylation-regulated kinase 1A (Homo sapiens, UniProt Q13627); experiment: Inhibition of DYRK1a
[14] = molecular target: Rho-associated protein kinase 2 (Homo sapiens, UniProt O75116); experiment: Inhibition of ROCK2
[15] = Inhibition of PI3K
[16] = molecular target: AMP-activated protein kinase, AMPK; experiment: Inhibition of AMPK; assay type: protein-complex assay
[17] = molecular target: Ribosomal protein S6 kinase alpha-5 (Homo sapiens, UniProt O75582); experiment: Inhibition of MSK1
[18] = molecular target: Tyrosine-protein kinase Lck (Homo sapiens, UniProt P06239); experiment: Inhibition of Lck
[19] = Inhibition of PKC
[20] = molecular target: T3, Serine/threonine-protein kinase Sgk1 (Homo sapiens, UniProt O00141); experiment: Inhibition of SGK
T3 sequence (O00141 whole entry): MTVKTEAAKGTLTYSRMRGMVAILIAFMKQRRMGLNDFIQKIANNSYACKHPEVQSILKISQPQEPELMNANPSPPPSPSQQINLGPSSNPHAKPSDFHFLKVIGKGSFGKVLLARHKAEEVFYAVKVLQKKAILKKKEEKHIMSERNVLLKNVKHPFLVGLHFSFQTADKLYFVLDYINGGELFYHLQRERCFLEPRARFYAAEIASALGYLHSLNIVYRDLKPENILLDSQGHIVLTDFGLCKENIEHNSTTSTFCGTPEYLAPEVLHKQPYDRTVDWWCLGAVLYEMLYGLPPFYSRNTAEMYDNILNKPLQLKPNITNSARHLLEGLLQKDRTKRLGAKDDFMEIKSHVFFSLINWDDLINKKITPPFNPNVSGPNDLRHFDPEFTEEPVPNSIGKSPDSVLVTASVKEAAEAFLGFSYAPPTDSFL

[21] = molecular target: hERG (KCNH2) (Homo sapiens, UniProt Q12809); experiment: Inhibition of hERG channel current in HEK293 cells at 3 uM; assay type: toxicity, cell-based; details: HEK293 cells that express hERG
[22] = molecular target: Cyclin-dependent kinase 2 (Homo sapiens, UniProt P24941); experiment: Inhibition of CDK2
[23] = molecular target: Dual specificity mitogen-activated protein kinase kinase 1 (Homo sapiens, UniProt Q02750); experiment: Inhibition of MKK1
[24] = molecular target: Protein kinase C alpha type (Homo sapiens, UniProt P17252); experiment: Inhibition of PKCalpha
[25] = molecular target: T4, MAP kinase-activated protein kinase 5 (Homo sapiens, UniProt Q8IW41); experiment: Inhibition of PRAK
T4 sequence (Q8IW41 whole entry): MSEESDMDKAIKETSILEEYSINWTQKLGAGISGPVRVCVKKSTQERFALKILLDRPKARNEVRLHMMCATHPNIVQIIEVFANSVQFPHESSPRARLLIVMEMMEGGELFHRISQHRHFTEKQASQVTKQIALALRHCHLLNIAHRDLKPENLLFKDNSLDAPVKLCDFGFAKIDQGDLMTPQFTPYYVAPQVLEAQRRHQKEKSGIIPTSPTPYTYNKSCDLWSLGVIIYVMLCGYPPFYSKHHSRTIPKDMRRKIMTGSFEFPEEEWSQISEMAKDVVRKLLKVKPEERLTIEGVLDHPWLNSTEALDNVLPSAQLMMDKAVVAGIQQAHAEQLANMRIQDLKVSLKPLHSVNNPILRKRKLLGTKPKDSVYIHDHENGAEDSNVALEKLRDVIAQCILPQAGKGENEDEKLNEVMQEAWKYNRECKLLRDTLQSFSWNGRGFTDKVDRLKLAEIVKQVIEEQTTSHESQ

[26] = molecular target: c-Jun N-terminal kinase, JNK (Homo sapiens, UniProt P45983+P53779+P45984); experiment: Inhibition of JNK; assay type: protein assay
[27] = molecular target: Tyrosine-protein kinase CSK (Homo sapiens, UniProt P41240); experiment: Inhibition of CSK
[28] = system: Monocyte; experiment: Inhibition of LPS-induced TNFalpha production in human monocytes; assay type: functional, cell-based
[29] = molecular target: Ribosomal protein S6 kinase (P70S6K) (Homo sapiens, UniProt P23443+Q9UBS0); experiment: Inhibition of P70S6K; assay type: protein-complex assay
[30] = system: Rattus norvegicus; experiment: Inhibition of LPS-induced TNFalpha release in rat at 3 mg/kg; assay type: functional
[31] = Hepatocyte extraction ratio in human; assay type: ADME, cell-based; details: hepatocytes
[32] = Volume of distribution in monkey; assay type: ADME, organism-based, Macaca mulatta; details: rhesus monkey, in vivo; read-out: Vdss
[33] = Bioavailability in rat; assay type: ADME, organism-based; details: in vivo
[34] = Bioavailability in monkey; assay type: ADME, organism-based, Macaca mulatta; details: rhesus monkey, in vivo
[35] = Volume of distribution in rat; assay type: ADME, organism-based; details: in vivo, read-out: Vdss
[36] = Half life in monkey; assay type: ADME, organism-based, Macaca mulatta; details: rhesus monkey, in vivo
[37] = Plasma clearance in rat; assay type: ADME, organism-based
[38] = Plasma clearance in monkey; assay type: ADME, organism-based, Macaca mulatta; details: rhesus monkey
[39] = Half life in rat; assay type: ADME, organism-based; details: in vivo
[40] = species on record: Rattus norvegicus; experiment: Inhibition of LPS-induced TNFalpha release in rat; assay type: functional
[41] = Hepatocyte microsomal extraction ratio in human; details: hepatic microsomes
[42] = Permeability from basolateral to apical side of Caco-2 cell membrane; assay type: ADME, cell-based; details: human
[43] = Permeability from apical to basolateral side of Caco-2 cell membrane; assay type: ADME, cell-based; details: human

Sequence of Mitogen-activated protein kinase 14 (Q16539 whole entry): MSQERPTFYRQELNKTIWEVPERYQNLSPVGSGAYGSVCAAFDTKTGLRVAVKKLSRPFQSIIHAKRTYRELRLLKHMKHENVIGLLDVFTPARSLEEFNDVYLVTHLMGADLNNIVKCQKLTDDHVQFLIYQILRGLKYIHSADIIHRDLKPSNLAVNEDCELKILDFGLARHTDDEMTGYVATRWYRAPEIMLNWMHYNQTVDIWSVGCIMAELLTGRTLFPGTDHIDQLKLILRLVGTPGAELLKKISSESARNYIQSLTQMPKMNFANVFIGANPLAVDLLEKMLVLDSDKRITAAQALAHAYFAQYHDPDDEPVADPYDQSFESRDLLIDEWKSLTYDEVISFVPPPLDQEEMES
Sequence of Ribosomal protein S6 kinase alpha-5 (O75582 whole entry): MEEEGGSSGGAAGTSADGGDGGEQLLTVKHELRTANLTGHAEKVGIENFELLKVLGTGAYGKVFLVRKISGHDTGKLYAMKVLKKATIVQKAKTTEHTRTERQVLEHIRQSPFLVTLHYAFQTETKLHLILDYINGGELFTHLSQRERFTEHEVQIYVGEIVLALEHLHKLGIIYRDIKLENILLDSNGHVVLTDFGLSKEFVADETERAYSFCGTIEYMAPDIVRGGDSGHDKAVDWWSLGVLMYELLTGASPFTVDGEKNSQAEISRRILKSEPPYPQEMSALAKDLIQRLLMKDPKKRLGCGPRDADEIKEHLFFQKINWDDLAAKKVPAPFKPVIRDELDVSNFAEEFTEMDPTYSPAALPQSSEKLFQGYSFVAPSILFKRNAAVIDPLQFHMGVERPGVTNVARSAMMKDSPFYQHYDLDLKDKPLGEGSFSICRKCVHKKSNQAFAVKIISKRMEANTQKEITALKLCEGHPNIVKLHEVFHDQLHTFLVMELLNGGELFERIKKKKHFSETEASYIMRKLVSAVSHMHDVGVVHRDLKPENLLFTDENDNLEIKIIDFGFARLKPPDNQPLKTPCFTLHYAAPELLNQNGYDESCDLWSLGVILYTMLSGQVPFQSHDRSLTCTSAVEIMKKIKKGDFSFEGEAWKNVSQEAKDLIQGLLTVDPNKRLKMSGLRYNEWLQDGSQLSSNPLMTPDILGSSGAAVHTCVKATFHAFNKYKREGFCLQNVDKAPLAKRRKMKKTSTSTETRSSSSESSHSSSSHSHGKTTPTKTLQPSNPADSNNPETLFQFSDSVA
Sequence of Tyrosine-protein kinase Lck (P06239 whole entry): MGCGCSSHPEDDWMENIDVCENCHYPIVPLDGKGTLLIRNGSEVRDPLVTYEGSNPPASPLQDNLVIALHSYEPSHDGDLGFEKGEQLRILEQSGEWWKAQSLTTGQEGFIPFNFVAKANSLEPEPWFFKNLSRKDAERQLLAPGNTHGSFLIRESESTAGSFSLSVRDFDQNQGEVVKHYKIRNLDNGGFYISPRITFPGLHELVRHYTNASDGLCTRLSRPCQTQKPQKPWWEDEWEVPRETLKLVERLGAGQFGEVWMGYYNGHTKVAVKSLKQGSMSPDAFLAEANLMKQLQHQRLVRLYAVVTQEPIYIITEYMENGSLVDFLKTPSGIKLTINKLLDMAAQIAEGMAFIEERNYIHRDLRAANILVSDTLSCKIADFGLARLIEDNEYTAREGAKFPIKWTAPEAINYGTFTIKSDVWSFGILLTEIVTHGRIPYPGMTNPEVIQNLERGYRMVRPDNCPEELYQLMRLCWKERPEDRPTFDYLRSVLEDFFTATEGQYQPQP
Sequence of Mitogen-activated protein kinase 1 (P28482 whole entry): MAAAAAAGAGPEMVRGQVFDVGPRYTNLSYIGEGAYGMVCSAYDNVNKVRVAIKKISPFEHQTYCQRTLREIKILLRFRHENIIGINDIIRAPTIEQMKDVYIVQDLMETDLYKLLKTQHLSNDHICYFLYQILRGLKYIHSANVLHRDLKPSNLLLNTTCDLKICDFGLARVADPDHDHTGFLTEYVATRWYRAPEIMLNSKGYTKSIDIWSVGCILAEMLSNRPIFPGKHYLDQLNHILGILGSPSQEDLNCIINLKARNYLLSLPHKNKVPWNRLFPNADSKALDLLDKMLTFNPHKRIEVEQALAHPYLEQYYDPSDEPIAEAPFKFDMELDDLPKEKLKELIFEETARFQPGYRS
Sequence of Glycogen synthase kinase-3 beta (P49841 whole entry): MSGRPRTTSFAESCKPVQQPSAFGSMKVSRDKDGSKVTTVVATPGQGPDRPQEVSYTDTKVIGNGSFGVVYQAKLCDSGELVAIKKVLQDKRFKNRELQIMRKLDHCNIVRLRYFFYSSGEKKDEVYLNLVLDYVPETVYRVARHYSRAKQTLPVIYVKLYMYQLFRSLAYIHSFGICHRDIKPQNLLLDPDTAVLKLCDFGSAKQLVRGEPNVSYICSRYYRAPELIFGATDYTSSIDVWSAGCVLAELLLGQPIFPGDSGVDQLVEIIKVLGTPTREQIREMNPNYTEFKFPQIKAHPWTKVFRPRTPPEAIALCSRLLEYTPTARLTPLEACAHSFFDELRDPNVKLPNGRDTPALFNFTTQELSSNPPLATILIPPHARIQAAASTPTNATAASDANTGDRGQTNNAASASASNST
Sequence of hERG (KCNH2) (Q12809 whole entry): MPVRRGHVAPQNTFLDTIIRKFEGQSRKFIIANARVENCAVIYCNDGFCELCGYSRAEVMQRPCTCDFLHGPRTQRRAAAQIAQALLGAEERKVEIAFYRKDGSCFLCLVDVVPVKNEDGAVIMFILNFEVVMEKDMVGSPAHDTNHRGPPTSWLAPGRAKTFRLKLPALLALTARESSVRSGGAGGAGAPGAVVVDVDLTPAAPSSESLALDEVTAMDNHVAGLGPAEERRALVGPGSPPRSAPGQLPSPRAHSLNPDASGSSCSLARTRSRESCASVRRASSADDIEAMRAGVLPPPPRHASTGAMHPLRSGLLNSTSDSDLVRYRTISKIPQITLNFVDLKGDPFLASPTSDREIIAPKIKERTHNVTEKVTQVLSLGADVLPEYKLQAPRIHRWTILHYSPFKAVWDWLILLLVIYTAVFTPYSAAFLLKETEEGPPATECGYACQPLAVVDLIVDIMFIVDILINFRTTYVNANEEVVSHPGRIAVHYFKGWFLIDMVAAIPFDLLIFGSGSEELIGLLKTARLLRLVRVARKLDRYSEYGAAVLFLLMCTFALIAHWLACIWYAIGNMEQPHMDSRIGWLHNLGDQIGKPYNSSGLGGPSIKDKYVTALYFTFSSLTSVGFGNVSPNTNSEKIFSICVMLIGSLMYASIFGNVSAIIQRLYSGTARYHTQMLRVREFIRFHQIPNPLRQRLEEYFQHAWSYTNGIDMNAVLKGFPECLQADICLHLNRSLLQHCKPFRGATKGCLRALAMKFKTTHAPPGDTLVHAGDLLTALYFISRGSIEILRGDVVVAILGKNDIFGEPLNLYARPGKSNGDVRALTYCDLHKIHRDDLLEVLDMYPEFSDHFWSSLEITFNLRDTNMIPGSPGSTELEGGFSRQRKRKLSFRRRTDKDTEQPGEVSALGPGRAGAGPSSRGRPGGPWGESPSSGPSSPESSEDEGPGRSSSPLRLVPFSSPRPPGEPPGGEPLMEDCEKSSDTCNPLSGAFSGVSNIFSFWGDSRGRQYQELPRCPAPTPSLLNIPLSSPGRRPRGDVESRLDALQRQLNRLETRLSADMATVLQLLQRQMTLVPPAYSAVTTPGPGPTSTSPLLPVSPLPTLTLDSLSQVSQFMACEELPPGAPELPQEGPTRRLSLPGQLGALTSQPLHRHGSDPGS
Sequence of Tyrosine-protein kinase CSK (P41240 whole entry): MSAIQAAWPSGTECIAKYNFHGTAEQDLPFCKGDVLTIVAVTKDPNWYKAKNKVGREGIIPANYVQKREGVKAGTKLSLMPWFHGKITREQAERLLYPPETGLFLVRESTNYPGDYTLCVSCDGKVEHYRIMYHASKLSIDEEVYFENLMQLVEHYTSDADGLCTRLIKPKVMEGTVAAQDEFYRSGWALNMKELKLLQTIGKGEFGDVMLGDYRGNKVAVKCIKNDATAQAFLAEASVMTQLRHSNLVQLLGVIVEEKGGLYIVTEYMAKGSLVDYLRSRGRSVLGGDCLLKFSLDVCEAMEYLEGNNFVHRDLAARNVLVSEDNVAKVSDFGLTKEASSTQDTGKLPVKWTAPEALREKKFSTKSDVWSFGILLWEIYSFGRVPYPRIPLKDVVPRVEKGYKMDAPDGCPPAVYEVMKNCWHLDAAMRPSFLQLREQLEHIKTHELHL

CC(C)c1nnc2ccc(-c3ocnc3-c3ccc(F)cc3Cl)cn12
IC50 [1]: > 10000 nM
IC50 [2]: > 10000 nM
IC50 [3]: > 10000 nM
IC50 [4]: > 10000 nM
IC50 [5]: 380 nM
IC50 [6]: > 10000 nM
solubility [7]: 81 µg/mL (≈ 227 µM)
IC50 [8]: > 10000 nM
IC50 [9]: > 10000 nM
IC50 [10]: 2.5 nM
IC50 [11]: > 10000 nM
IC50 [12]: > 10000 nM
IC50 [13]: > 10000 nM
IC50 [14]: > 10000 nM
IC50 [15]: > 10000 nM
IC50 [16]: > 10000 nM
IC50 [17]: > 10000 nM
IC50 [18]: > 10000 nM
IC50 [19]: > 10000 nM
IC50 [20]: > 10000 nM
inhibition at 3 µM [21]: 0%
IC50 [22]: > 10000 nM
IC50 [23]: > 10000 nM
IC50 [24]: > 10000 nM
IC50 [25]: > 10000 nM
IC50 [26]: > 10000 nM
IC50 [27]: > 10000 nM
IC50 [28]: 24.5 nM
IC50 [29]: > 10000 nM
inhibition in vivo at 3 mg/kg [30]: 94%

Cc1cc(-c2ncoc2-c2ccc3nnc(C(C)C)n3c2)ccc1F
IC50 [5]: 260 nM
IC50 [10]: 6.6 nM
hepatic extraction ratio [31]: > 0.5
IC50 [28]: 11.6 nM

CC(C)c1nnc2ccc(-c3ocnc3-c3ccc(F)c(Cl)c3)cn12
Vd [32]: 1.4 L/kg
bioavailability [33]: 9.4%
IC50 [5]: 631 nM
solubility [7]: 2.8 µg/mL (≈ 7.85 µM)
IC50 [10]: 12.4 nM
bioavailability [34]: 31%
Vd [35]: 1.3 L/kg
half-life [36]: 4.7 h
clearance [37]: 17 mL/min/kg
IC50 [28]: 47.2 nM
clearance [38]: 5.7 mL/min/kg
half-life [39]: 0.9 h
ED50 [40]: 0.5 mg/kg

CC(C)c1nnc2ccc(-c3ocnc3-c3ccc(Cl)cc3F)cn12
IC50 [5]: 600 nM
IC50 [10]: 2.2 nM
hepatic extraction ratio [31]: > 0.5
IC50 [28]: 20 nM
hepatic extraction ratio [41]: < 0.3

Fc1ccc(-c2ncoc2-c2ccc3nnc(-c4ccccc4)n3c2)cc1
IC50 [5]: 5350 nM
IC50 [10]: 12.3 nM
hepatic extraction ratio [31]: > 0.5
IC50 [28]: 90 nM

CC(C)c1nnc2ccc(-c3ocnc3-c3ccc(F)cc3F)cn12
IC50 [5]: 265 nM
IC50 [10]: 4.6 nM
hepatic extraction ratio [31]: > 0.5
IC50 [28]: 10 nM

CC(C)c1nnc2ccc(-c3cnoc3-c3cc(F)ccc3F)cn12
IC50 [10]: 33.2 nM
Papp B→A [42]: 29 ×10⁻⁶ cm/s
Papp A→B [43]: 41 ×10⁻⁶ cm/s
IC50 [28]: 63 nM

Fc1ccc(-c2ncoc2-c2ccc3nnc(N4CCCC4)n3c2)cc1
IC50 [5]: 935 nM
IC50 [10]: 15.4 nM
hepatic extraction ratio [31]: > 0.5
IC50 [28]: 52 nM
